Test results published in US20210246115A1 (Bioimics AB, priority 2017, published 2021).
pIC50: −log10 of the molar value. In brackets after ≈: the same amount, converted by molar mass. Structures can show the parent of a compound that is named as a salt. Where two headings read alike, the source gives them in different places.

How the values were obtained:
[1] = tested on: Escherichia coli (ATCC25922); experiment: MIC, broth microdilution (CLSI), Escherichia coli; conditions: Escherichia coli, ATCC25922, read-out: E. coli ATCC 25922 MIC, Table XIII
[2] = tested on: Staphylococcus aureus subsp. aureus (ATCC29213); experiment: MIC, broth microdilution (CLSI), Staphylococcus aureus ATCC29213; format: cell-based; conditions: Staphylococcus aureus
[3] = tested on: E. coli RNase P RNA, M1 RNA; experiment: Inhibition of bacterial RNase P activity, IC50 determination (cleavage of pATSerUG by M1 RNA); format: biochemical; conditions: NI: No inhibition
[4] = ATCC29213, Table XIII, read-out: S. aureus ATCC 29213 MIC
[5] = ATCC29213, read-out: S. aureus ATCC 29213 MIC, Table XIII

SMILES	MIC [1] [mg/L]	MIC [2, 4] [mg/L]	pIC50 [3]	pIC50 ([3]; hydrochloride salt)	MIC [2, 5] [mg/L]
Cc1cccc(C(CCNCCCN)c2cn(C3CCCCC3)c3ccc(C#N)cc23)c1.Cl.Cl (stereo not drawn) [Compound 379, 3-(3-((3-aminopropyl)amino)-1-(m-tolyl)propyl)-1-cyclohexyl-1H-indole-5-carbonitrile hydrochloride salt]	8	8	4.47	–	–
Cc1cccc(C(CCNC2CCN(C(=N)N)CC2)c2cn(C3CCCCC3)c3ccccc23)c1.Cl (stereo not drawn) [Compound 353, 4-((3-(1-cyclohexyl-1H-indol-3-yl)-3-(m-tolyl)propyl)amino)piperidine-1-carboximidamide hydrochloride salt]	32	4	4.72	–	–
CC(C)=CCC/C(C)=C/Cn1cc(C(CCNCCCN)C2CCCCC2)c2ccccc21 (stereo not drawn) [Compound 421, (E)-N1-(3-cyclohexyl-3-(1-(3,7-dimethylocta-2,6-dien-1-yl)-1H-indol-3-yl)propyl)propane-1,3-diamine]	8 (≈ 17.8 µM)	4 (≈ 8.89 µM)	5.08	–	–
Cl.Cl.N#Cc1ccc2c(c1)c(C(CCN[C@H]1CC[C@H](N)CC1)C1CCCCC1)cn2C1CCCCC1 (stereo partly drawn) [Compound 407, 3-(3-(((1R,4R)-4-aminocyclohexyl)amino)-1-cyclohexylpropyl)-1-cyclohexyl-1H-indole-5-carbonitrile salt]	8	4	4.64	–	–
FC(F)(F)Oc1cccc(-c2ccc3c(c2)c(C2CCCC(NC4CCNCC4)C2)cn3C2CCCCC2)c1 (stereo not drawn) [Compound 403, N-(3-(1-cyclohexyl-5-(3-(trifluoromethoxy)phenyl)-1H-indol-3-yl)cyclohexyl) piperidin-4-amine hydrochloride salt]	16	–	5.15	–	4
NC1CCC(NCCC(c2cccnc2)c2cn(CC3CCCCC3)c3ccccc23)CC1 (stereo not drawn) [Compound 319, N1-(3-(1-(cyclohexylmethyl)-1H-indol-3-yl)-3-(pyridin-3-yl)propyl) cyclohexane-1,4-diamine hydrochloride salt]	64	–	–	–	32
Cl.Cl.c1cncc(C(CCNC2CCNCC2)c2cn(CC3CCCCC3)c3ccccc23)c1 (stereo not drawn) [Compound 320, N-(3-(1-(cyclohexylmethyl)-1H-indol-3-yl)-3-(pyridin-3-yl)propyl) piperidin-4-amine hydrochloride salt]	128	128	–	–	–
Cc1cccc(C(CCNCCCN2CCCC2)c2cn(C3CCCCC3)c3ccccc23)c1 (stereo not drawn) [Compound 367, 3-(1-cyclohexyl-1H-indol-3-yl)-N-(3-(pyrrolidin-1-yl)propyl)-3-(m-tolyl)propan-1-amine]	> 128	64 (≈ 140 µM)	–	–	–
CC(=O)N1CCC(N(CCC(c2cccc(C)c2)c2cn(C3CCCCC3)c3ccccc23)C(C)=O)CC1 (stereo not drawn) [Compound 354, N-(1-acetylpiperidin-4-yl)-N-(3-(1-cyclohexyl-1H-indol-3-yl)-3-(m-tolyl)propyl)acetamide salt]	> 128	128	–	–	–
Cc1cccc(C(CCNC2CCNCC2)c2cn(C3CCNCC3)c3ccccc23)c1 (stereo not drawn) [Compound 317, N-(3-(1-(piperidin-4-yl)-1H-indol-3-yl)-3-(m-tolyl)propyl)piperidin-4-amine hydrochloride salt]	> 128	–	–	–	64
Cc1cccc(C(CCNCCCN)c2cn(CC3CCNCC3)c3ccc(C#N)cc23)c1 (stereo not drawn) [Compound 327, 3-(3-((3-aminopropyl)amino)-1-(m-tolyl)propyl)-1-(piperidin-4-ylmethyl)-1H-indole-5-carbonitrile hydrochloride salt]	> 128	–	–	–	32
Cc1cccc(C(CCNCC2(CN)CC2)c2cn(C3CCCCC3)c3ccccc23)c1 (stereo not drawn) [Compound 390, N-((1-(aminomethyl)cyclopropyl)methyl)-3-(1-cyclohexyl-1H-indol-3-yl)-3-(m-tolyl)propan-1-amine]	8 (≈ 18.6 µM)	8 (≈ 18.6 µM)	–	–	–
CCN(Cc1cn(CC2CCCCC2)c2ccccc12)CC1CCNCC1 [Compound 302, hydrochloride salt]	128	–	–	–	128
Cc1cccc(C(CCNCCCN)c2cn(CC3CCCCC3)c3ccccc23)c1.Cl.Cl (stereo not drawn) [Compound 346, N1-(3-(1-(cyclohexylmethyl)-1H-indol-3-yl)-3-(m-tolyl)propyl)propane-1,3-diamine hydrochloride salt]	8	8	–	–	–
Cc1cccc(C(CCNC2CCC(N)CC2)c2cn(CC3CCOCC3)c3ccc(CN)cc23)c1 (stereo not drawn) [Compound 311, N1-(3-(5-(aminomethyl)-1-((tetrahydro-2H-pyran-4-yl)methyl)-1H-indol-3-yl)-3-(m-tolyl)propyl) cyclohexane-1,4-diamine hydrochloride salt]	> 128	–	–	–	128
N#Cc1ccc2c(c1)c(C1CCCC(NCCCN)C1)cn2C1CCCCC1 (stereo not drawn) [Compound 389, 3-(3-((3-aminopropyl)amino)cyclohexyl)-1-cyclohexyl-1H-indole-5-carbonitrile]	32 (≈ 84.5 µM)	16 (≈ 42.3 µM)	–	–	–
Cl.Cl.NCCCNCCC(c1cccnc1)c1cn(C2CC3CCC2C3)c2ccccc12 (stereo not drawn) [Compound 328, N1-(3-(1-(bicyclo[2.2.1]heptan-2-yl)-1H-indol-3-yl)-3-(pyridin-3-yl)propyl)propane-1,3-diamine hydrochloride salt]	64	32	–	–	–

Continued by falling MIC [1], values first:

MIC [1] [mg/L]	MIC [2, 4] [mg/L]	pIC50 [3]	pIC50 ([3]; hydrochloride salt)	SMILES	MIC [2, 5] [mg/L]
8	16	4.05	–	Cc1cccc(C(CCNC2CCNCC2)c2cn(C3CCCC3)c3ccccc23)c1.Cl.Cl (stereo not drawn) [Compound 333, N-(3-(1-cyclopentyl-1H-indol-3-yl)-3-(m-tolyl)propyl)piperidin-4-amine hydrochloride salt]	–
4	4	4.43	–	Cl.Cl.NCCCNCCC(c1cccc(Cl)c1)c1cn(C2CCCCC2)c2ccccc12 (stereo not drawn) [Compound 356, N1-(3-(3-chlorophenyl)-3-(1-cyclohexyl-1H-indol-3-yl)propyl) propane-1,3-diamine hydrochloride salt]	–
4	2	4.96	–	Cl.Cl.NCCCNCCC(c1cn(C2CCCCC2)c2ccc(Br)cc12)C1CCCCC1 (stereo not drawn) [Compound 429, N1-(3-(5-bromo-1-cyclohexyl-1H-indol-3-yl)-3-cyclohexylpropyl) propane-1,3-diamine hydrochloride salt]	–
4	4	4.46	–	NCCCNC1CCCC(c2cn(C3CCCCC3)c3ccc(Br)cc23)C1 (stereo not drawn) [Compound 380, N1-(3-(5-bromo-1-cyclohexyl-1H-indol-3-yl)cyclohexyl)propane-1,3-diamine salt]	–
4	4	5.08	–	Cc1ccccc1-c1ccc2c(c1)c(CCCNCCCN)cn2C1CCCCC1.Cl.Cl [Compound 362, N1-(3-(1-cyclohexyl-5-(o-tolyl)-1H-indol-3-yl)propyl)propane-1,3-diamine hydrochloride salt]	–
4	2	4.74	–	Cc1cccc(C(CCNCCCN)c2cn(C3CCCCC3)c3ccc(-c4ccncc4)cc23)c1.Cl.Cl (stereo not drawn) [Compound 412, N1-(3-(1-cyclohexyl-5-(pyridin-4-yl)-1H-indol-3-yl)-3-(m-tolyl)propyl) propane-1,3-diamine hydrochloride salt]	–
4	4	5.08	–	CCCCCCCCn1cc(C(CCNCCCN)C(CC)CC)c2ccccc21.Cl.Cl (stereo not drawn) [Compound 426, N1-(4-ethyl-3-(1-octyl-1H-indol-3-yl)hexyl)propane-1,3-diamine hydrochloride salt]	–
4	4	4.80	–	Cl.Cl.NCCCNCCC(c1cccc(C(F)(F)F)c1)c1cn(C2CCCCC2)c2ccccc12 (stereo not drawn) [Compound 351, N1-(3-(1-cyclohexyl-1H-indol-3-yl)-3-(3-(trifluoromethyl)phenyl)propyl)propane-1,3-diamine hydrochloride salt]	–
4	2	5.05	–	Cl.Cl.N[C@H]1CC[C@H](NCCCc2cn(C3CCCCC3)c3ccc(C4CCCCC4)cc23)CC1 [Compound 398, (1r,4r)-N1-(3-(1,5-dicyclohexyl-1H-indol-3-yl)propyl)cyclohexane-1,4-diamine hydrochloride salt]	–
4	4	–	4.74	Cc1cccc(C(CCNCCCN)c2cn(C3CCCCC3)c3ccccc23)c1.Cl.Cl (stereo not drawn) [Compound 310, N1-(3-(1-cyclohexyl-1H-indol-3-yl)-3-(m-tolyl)propyl)propane-1,3-diamine hydrochloride salt]	–
4	8	4.49	–	Cc1cccc(C(CCNCCCN)c2cn(C3CC4CCC3C4)c3ccccc23)c1.Cl.Cl (stereo not drawn) [Compound 341, N1-(3-(1-(bicyclo[2.2.1]heptan-2-yl)-1H-indol-3-yl)-3-(m-tolyl)propyl)propane-1,3-diamine hydrochloride salt]	–
4	4	4.96	–	Cc1cccc(C(CCNCCCN)c2cn(C3CCCCC3)c3ccc(Br)cc23)c1.Cl.Cl (stereo not drawn) [Compound 655, N1-(3-(5-bromo-1-cyclohexyl-1H-indol-3-yl)-3-(m-tolyl)propyl)propane-1,3-diamine hydrochloride salt]	–
4	2	4.80	–	Cl.Cl.NCCCNCCC(c1cc(Cl)cc(Cl)c1)c1cn(C2CCCCC2)c2ccccc12 (stereo not drawn) [Compound 349, N1-(3-(1-cyclohexyl-1H-indol-3-yl)-3-(3,5-dichlorophenyl)propyl) propane-1,3-diamine hydrochloride salt]	–
2	8	4.51	–	Cl.Cl.NCCCNCCC(c1cn(C2CCCCC2)c2ccccc12)C1CCCC1 (stereo not drawn) [Compound 423, N1-(3-(1-cyclohexyl-1H-indol-3-yl)-3-cyclopentylpropyl) propane-1,3-diamine hydrochloride salt]	–
